What was measured:
Type in all cases: biochemical
[1] = target: T1, epidermal growth factor receptor kinase (Homo sapiens, UniProt P00533); assay: Inhibition of Epidermal Growth Factor Receptor Kinase (EGF-R) using recombinant enzyme; conditions: averages of the individual determinations
T1 construct: containing the EGFR cDNA encoding amino acids 645 - 1186 preceded by Met-Ala-(His)6; made in house; host or cells: Sf9 insect cells, recombinant baculovirus vHcEGFR52
Protocol: Representative test compounds were evaluated for their ability to inhibit the phosphorylation of the tyrosine residue of a peptide substrate catalyzed by the enzyme epidermal growth factor receptor kinase. […] The enzyme used in this assay is the His-tagged cytoplasmic domain of EGFR. A recombinant baculovirus (vHcEGFR52) was constructed containing the EGFR cDNA encoding amino acids 645 - 1186 preceded by Met-Ala-(His)6. Sf9 cells in 100 mm plates were infected at an moi of 10 pfu/cell and cells were harvested 48 h post infection. A cytoplasmic extract was prepared using 1% Triton X-100 and applied to Ni-NTA column. After washing the column with 20 mM imidazole, HcEGFR was eluted with 250 mM imidazole (in 50 mM Na2HPO4, pH 8.0, 300 mM NaCl). Fractions collected were dialyzed against 10 mM HEPES, pH 7.0, 50 mM NaCl, 10% glycerol, 1ug/mL antipain and leupeptin and 0.1 mM Pefabloc SC. The protein was frozen in dry ice/methanol and stored -70°C.
Test compounds were made into 10 mg/mL stock solutions in 100% dimethylsulfoxide (DMSO). Prior to experiment, stock solutions were diluted to 500 uM with 100% DMSO and then serially diluted to the desired concentration with HEPES buffer (30 mM HEPES pH 7.4).
For the enzyme reaction, 10 µL of each inhibitor (at various concentrations) were added to each well of a 96-well plate. To this was added 3 µL of enzyme (1:10 dilution in 10mM HEPES, pH 7.4 for final conc. of 1:120). This was allowed to sit for 10 min on ice and was followed by the addition of 5 µl peptide (80 µM final conc.), 10 µl of 4X Buffer (Table A), 0.25 µL ^33P-ATP and 12 µL H2O. The reaction was allowed to run for 90 min at room temperature and was followed by spotting the entire volume on to precut P81 filter papers. The filter discs were washed 2X with 0.5% phosphoric acid and radioactivity was measured using a liquid scintillation counter.
The % inhibition of the test compound was determined for at least three different concentrations and the IC50 value was evaluated from the dose response curve. […] CPM(control) is in units of counts per minute and was a number expressing the amount of radiolabled ATP (g-^33P) incorporated into the RR-SRC peptide substrate by the enzyme after 90 minutes at room temperature in the absence of test compound as measured by liquid scintillation counting. The CPM values were corrected for the background counts produced by ATP in the absence of the enzymatic reaction. The IC50 values in TABLE 1 are averages of the individual determinations.

[2] = target: Epithelial Cell Kinase (ECK) (Homo sapiens, UniProt P29317); assay: Inhibition of Epithelial Cell Kinase (ECK) tyrosine kinase activity
Sequence of Epithelial Cell Kinase (ECK) (P29317 24-976, species assumed): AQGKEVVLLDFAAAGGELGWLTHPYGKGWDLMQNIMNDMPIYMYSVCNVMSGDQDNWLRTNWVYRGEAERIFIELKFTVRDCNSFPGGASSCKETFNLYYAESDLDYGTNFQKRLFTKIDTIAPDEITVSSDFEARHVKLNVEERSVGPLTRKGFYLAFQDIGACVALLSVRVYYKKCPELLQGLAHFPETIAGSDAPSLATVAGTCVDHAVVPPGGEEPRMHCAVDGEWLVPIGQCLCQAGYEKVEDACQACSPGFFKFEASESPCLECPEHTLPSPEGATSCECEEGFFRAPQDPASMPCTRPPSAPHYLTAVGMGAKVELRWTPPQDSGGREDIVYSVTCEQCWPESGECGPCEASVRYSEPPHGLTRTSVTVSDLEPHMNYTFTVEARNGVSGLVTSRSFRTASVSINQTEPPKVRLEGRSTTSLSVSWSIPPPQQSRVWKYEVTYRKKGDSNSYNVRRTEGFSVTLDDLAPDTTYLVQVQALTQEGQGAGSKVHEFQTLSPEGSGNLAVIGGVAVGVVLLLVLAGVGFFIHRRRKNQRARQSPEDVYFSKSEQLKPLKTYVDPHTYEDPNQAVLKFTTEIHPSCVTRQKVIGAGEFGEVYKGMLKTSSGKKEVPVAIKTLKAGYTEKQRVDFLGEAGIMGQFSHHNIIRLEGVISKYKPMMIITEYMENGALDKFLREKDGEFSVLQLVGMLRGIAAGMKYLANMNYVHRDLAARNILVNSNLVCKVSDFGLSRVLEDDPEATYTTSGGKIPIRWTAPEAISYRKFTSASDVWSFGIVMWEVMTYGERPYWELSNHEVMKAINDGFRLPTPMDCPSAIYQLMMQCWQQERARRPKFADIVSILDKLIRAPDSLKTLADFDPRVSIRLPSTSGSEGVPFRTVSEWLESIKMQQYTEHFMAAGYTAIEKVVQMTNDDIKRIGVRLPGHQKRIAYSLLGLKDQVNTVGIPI
Protocol: In this standard pharmacological test procedure, a biotinylated peptide substrate is first immobilized on neutravidin-coated microtiter plates. The test drug, the Epithelial Cell Kinase (ECK), Mg^++, sodium vanadate (a protein tyrosine phosphatase inhibitor), and an appropriate buffer to maintain pH (7.2) are then added to the immobilized substrate-containing microtiter wells. ATP is then added to initiate phosphorylation. After incubation, the assay plates are washed with a suitable buffer leaving behind phosphorylated peptide which is exposed to horse radish peroxidase (HRP)-conjugated anti-phosphotyrosine monoclonal antibody. The antibody-treated plates are washed again and the HRP activity in individual wells is quantified as a reflection of degree of substrate phosphorylation. […] Multiple entries for a given compound indication it was tested multiple times.

[3] = target: Mek and Erk (Homo sapiens, UniProt P28482+Q02750); assay: Mitogen Activated Protein Kinase (MAPK) coupled assay (Mek-Erk); conditions: coupled MEK 1 / ERK2; separate entries = separate tests; read-out: Mek and Erk
Sequence of Mek and Erk (Q02750 whole entry): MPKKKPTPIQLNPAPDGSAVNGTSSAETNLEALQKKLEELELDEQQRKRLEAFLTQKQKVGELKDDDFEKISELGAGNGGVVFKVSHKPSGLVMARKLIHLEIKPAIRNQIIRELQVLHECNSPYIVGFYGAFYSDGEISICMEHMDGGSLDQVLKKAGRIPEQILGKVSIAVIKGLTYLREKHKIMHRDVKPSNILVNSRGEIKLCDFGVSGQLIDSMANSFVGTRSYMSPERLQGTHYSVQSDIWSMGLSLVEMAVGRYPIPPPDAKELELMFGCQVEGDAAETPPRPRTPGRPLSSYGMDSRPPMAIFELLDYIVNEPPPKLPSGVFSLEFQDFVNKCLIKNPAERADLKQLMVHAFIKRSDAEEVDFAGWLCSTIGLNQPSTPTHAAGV
Sequence of Mek and Erk (P28482 2-360): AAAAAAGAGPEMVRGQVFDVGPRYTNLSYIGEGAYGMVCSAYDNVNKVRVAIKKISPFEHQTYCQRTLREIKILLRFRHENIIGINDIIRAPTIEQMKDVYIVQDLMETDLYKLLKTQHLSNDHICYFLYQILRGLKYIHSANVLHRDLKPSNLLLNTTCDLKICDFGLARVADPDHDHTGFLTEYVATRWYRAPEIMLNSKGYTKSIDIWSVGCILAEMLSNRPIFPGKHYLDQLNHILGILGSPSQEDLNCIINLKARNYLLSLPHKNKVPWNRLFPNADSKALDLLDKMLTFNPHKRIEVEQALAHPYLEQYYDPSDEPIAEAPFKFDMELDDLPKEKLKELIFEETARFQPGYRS
Protocol: Mitogen Activated Protein Kinase (MAPK) Assay
To evaluate inhibitors of the MAP (mitogen activated protein) kinase a two component coupled standard pharmacological test procedure, which measures phosphorylation of a serine/threonine residue in an appropriate sequence in the substrate in the presence and absence of a putative inhibitor, was used. Recombinant human MEK 1 (MAPKK) was first used to activate recombinant human ERK2 (MAPK) and the activated MAPK (ERK) was incubated with substrate (MBP peptide or MYC peptide) in the presence of ATP, Mg^+2 and radiolabeled ^33P ATP. The phosphorylated peptide was captured on a P 81 phosphocellulose filter (paper filter or embedded in microtiter plate) washed and counted by scintillation methods.
The peptide substrates used in the assay are MBP, peptide substrate ([…]), or synthetic Myc substrate, ([…]•5 TFA. The recombinant enzymes used were prepared as GST fusion proteins of human ERK 2 and human MEK 1. Inhibitor samples were prepared as 10X stocks in 10% DMSO and an appropriate aliquot was used to deliver either 10 ug/ml for a single point screening dose or 100, 10, 1, and 0.1 uM final concentration for a dose response curve. Final DMSO concentrations were less than or equal to 1%.
The reaction was run as follows in 50 mM Tris kinase buffer, pH 7.4 in a reaction volume of 50 ul. The appropriate volume of kinase buffer and inhibitor sample was added to the tube. Appropriate dilution of enzyme was delivered to give 2-5 ug recombinant MAPK (Erk ) per tube. The inhibitor was incubated with MAPK (Erk) for 30 min at 0 deg. C. Recombinant Mek (MAPKK) ( 0.5-2.5 ug) or fully activated Mek (0.05-0.1 units) was added to activate the Erk and incubated for 30 min at 30° C. Then substrate and gamma ^33P ATP was were added to give a final concentration of 0.5- 1 mM MBPP or 250-500 uM Myc; 0.2-0.5 uCi gamma P 33 ATP/tube; 50 µM ATP final concentration. Samples were incubated at 30°C for 30 minutes and the reaction was stopped by adding 25 µl of ice cold 10 %TCA .After samples were chilled on ice for 30 min, 20 µl of sample was transferred onto P 81 phosphocellulose filter paper or appropriate MTP with embedded P 81 filter. Filter papers or MTP were washed 2 times with a large volume of 1% acetic acid, then 2 times with water. The filters or MTP were briefly air dried before addition of scintillant and samples were counted in the appropriate scintillation counter set up for reading ^33P isotope. Samples included a positive control (activated enzyme plus substrate); a no enzyme control; a no substrate control; samples with different concentrations of putative inhibitor; and samples with reference inhibitors (other active compounds or non-specific inhibitors such as staurosporine or K252 B).
The raw data was captured as cpm. Sample replicates were averaged and corrected for background count. Mean cpm data was tabulated by group and % inhibition by a test compound was calculated as (corrected cpm control- corrected. cpm sample/control) X 100 = % inhibition. […] The results obtained for representative compounds of this invention are listed in TABLE 2 where there may be separate entries for the same compound; this is an indication that the compound was evaluated more than one time.

[4] = target: T2, Kinase insert Domain containing Receptor (KDR: the catalytic domain of the VEGF receptor) (Homo sapiens, UniProt P35968); assay: Inhibition of Kinase insert Domain containing Receptor (KDR) tyrosine kinase activity
T2 construct: KDR: the catalytic domain of the VEGF receptor
T2 sequence (P35968 834-1162 limits assumed): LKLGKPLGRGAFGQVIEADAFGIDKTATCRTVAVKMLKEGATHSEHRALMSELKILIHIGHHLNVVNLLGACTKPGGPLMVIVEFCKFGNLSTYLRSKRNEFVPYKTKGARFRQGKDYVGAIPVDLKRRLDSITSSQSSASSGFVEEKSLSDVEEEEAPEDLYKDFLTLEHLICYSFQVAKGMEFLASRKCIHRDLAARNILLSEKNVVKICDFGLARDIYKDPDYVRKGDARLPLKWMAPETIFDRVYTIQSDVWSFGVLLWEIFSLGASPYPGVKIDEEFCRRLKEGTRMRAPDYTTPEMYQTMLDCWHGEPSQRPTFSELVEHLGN
Text: Inhibition of Kinase insert Domain containing Receptor (KDR: the catalytic domain of the VEGF receptor)
In this standard pharmacological test procedure, KDR protein is mixed, in the presence or absence of a inhibitor compound, with a substrate peptide to be phosphorylated (a copolymer of glutamic acid and tyrosine, E:Y :: 4:1) and other cofactors such as Mg^++ and sodium vanadate (a protein tyrosine phosphatase inhibitor) in an appropriate buffer to maintain pH (7.2). ATP and a radioactive tracer (either P^32- or P^33- labeled ATP) is then add to initiate phosphorylation. After incubation, the radioactive phosphate associated with the acid-insoluble fraction of the assay mixture is then quantified as reflection of substrate phosphorylation. […] Multiple entries for a given compound indication it was tested multiple times.

T1 sequence (P00533 669-1210): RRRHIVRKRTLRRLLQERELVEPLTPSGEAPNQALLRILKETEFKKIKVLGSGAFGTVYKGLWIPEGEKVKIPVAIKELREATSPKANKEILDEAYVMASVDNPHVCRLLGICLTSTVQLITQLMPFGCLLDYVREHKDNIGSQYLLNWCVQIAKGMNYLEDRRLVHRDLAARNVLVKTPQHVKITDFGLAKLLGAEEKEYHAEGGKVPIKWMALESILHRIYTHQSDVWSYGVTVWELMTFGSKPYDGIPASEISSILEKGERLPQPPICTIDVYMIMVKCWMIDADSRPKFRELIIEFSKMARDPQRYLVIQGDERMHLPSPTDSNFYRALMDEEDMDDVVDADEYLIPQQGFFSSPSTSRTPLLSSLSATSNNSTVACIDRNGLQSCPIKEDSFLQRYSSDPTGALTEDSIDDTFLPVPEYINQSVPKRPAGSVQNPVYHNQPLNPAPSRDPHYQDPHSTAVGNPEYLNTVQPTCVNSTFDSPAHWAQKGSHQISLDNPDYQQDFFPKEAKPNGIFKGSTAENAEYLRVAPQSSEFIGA

N#Cc1cnc2ccc(NC(=O)C#CCN3CCC4(CC3)OCCO4)cc2c1Nc1cccc(Br)c1 [Example 82, 4-(1,4-Dioxa-8-azaspiro[4,5]dec-8-yl)but-2-ynoic Acid [4-(3-Bromophenylamino)-3-cyanoquinolin-6-yl] Amide]
IC50 [1]: 50 nM
IC50 [2]: > 1830 nM
IC50 [3]: 30 µM
IC50 [4]: > 1830 nM

Source: patent EP2253620B1, “SUBSTITUTED 3-CYANOQUINOLINES AS PROTEIN TYROSINE KINASES INHIBITORS” (Wyeth Holdings LLC, priority 1998, dated 2000)
